Patent US9108921B2, “Therapeutic compounds and compositions” (AGIOS PHARMACEUTICALS, INC, priority 2014, dated 2015)

How the values were obtained:
PKR R510Q = PKR R510Q (Homo sapiens, UniProt P30613, R510Q); assay: PKR Mutant Assay, AC50 against PKR R510Q; format: biochemical; conditions: mutant PKR R510Q enzyme
Procedure, shortened: (§1)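 Steps: compound added to wells, then reaction mix lacking ADP; 60 min room-temperature hold; ADP (0.22-1.65 mM) added to start; A340 monitored at room temperature via PEP/LDH/NADH coupling. Top final compound concentration 100 μM, 3-fold dilutions over 11 points.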

PKR WT [1] = molecular target: T1, PKR WT (Homo sapiens, UniProt P30613); assay: PKR WT cell based AC50 assay; conditions: wild type PKR
T1 sequence (P30613 whole entry): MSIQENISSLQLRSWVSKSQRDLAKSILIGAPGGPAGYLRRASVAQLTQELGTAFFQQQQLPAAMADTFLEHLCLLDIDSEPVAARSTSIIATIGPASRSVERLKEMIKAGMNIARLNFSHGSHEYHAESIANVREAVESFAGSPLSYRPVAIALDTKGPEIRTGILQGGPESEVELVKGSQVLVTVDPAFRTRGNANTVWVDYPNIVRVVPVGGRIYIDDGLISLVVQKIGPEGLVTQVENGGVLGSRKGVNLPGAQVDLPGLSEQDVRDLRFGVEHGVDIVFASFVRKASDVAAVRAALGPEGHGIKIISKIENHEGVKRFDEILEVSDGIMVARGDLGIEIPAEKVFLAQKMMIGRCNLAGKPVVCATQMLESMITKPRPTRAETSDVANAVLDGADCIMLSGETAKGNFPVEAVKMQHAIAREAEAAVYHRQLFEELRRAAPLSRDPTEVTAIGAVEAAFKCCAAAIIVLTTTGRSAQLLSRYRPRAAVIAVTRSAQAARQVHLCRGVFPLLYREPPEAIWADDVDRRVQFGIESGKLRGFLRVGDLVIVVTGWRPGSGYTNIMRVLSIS

PKR WT [2] = molecular target: T1, PKR WT; assay: PKR WT enzymatic AC50 assay; format: biochemical; conditions: wild type PKR
Procedure, shortened: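 Human PKR (WT or mutant, 80-400 ng/well) in 50 mM Tris pH 7.5, 100 mM KCl, 5 mM MgCl2, 1 mM DTT, 0.03% BSA with PEP 0.1-0.5 mM, NADH 180 uM and LDH, preincubated 60 min at room temperature with compound (11-point 3-fold series from 100 μM final, 1% DMSO). ADP 0.22-1.65 mM started reaction; A340 followed.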

PKR R532W = PKR R532W (Homo sapiens, UniProt P30613, R532W); assay: PKR Mutant Assay, AC50 against PKR R532W; format: biochemical; conditions: mutant PKR R532W enzyme
Sequence of PKR R532W (P30613 whole entry R532W): as the sequence (P30613 whole entry) above, with R532W counted along it
Procedure, shortened: as §1

Sequence of PKR R510Q (P30613 whole entry R510Q): as the sequence (P30613 whole entry) above, with R510Q counted along it

| Structure (SMILES) | AC50 (PKR R510Q) [nM] | AC50 (PKR WT [1]) [nM] | AC50 (PKR WT [2]) [nM] | AC50 (PKR R532W) [nM] |
| --- | --- | --- | --- | --- |
| O=C(c1ccc(NS(=O)(=O)c2cc(F)cc3scnc23)cc1)N1CCC(O)(c2ccccc2Cl)CC1 [Compound 401, N-(4-(4-(2-chlorophenyl)-4-hydroxypiperidine-1-carbonyl)phenyl)-6-fluorobenzo[d]thiazole-4-sulfonamide] | 101 to 1000 | 101 to 1000 | < 100 | < 100 |
| O=C(c1ccc(NS(=O)(=O)c2cccc3scnc23)cc1)N1CCC(O)(/C=C/CC(F)(F)F)CC1 [Compound 404, (E)-N-(4-(4-hydroxy-4-(4,4,4-trifluorobut-1-enyl)piperidine-1-carbonyl)phenyl)benzo[d]thiazole-4-sulfonamide] | < 100 | 101 to 1000 | < 100 | < 100 |
| Nc1nc2c(S(=O)(=O)Nc3ccc(C(=O)N4CCC(O)(c5ccccc5Cl)CC4)cc3)cccc2s1 [Compound 407, 2-amino-N-(4-(4-(2-chlorophenyl)-4-hydroxypiperidine-1-carbonyl)phenyl)benzo[d]thiazole-4-sulfonamide] | < 100 | < 100 | < 100 | < 100 |
| CNc1nc2c(S(=O)(=O)Nc3ccc(C(=O)N4CCC(O)(CC(C)C)CC4)cc3)cccc2s1 [Compound 408, N-(4-(4-hydroxy-4-isobutylpiperidine-1-carbonyl)phenyl)-2-(methylamino)benzo[d]thiazole-4-sulfonamide] | < 100 | < 100 | < 100 | < 100 |
| Cn1cc(C2(O)CCN(C(=O)c3ccc(NS(=O)(=O)c4cccc5scnc45)cc3)CC2)cn1 [Compound 411, N-[4-[4-hydroxy-4-(1-methylpyrazol-4-yl)piperidine-1-carbonyl]phenyl]benzothiazole-4-sulfonamide] | 101 to 1000 | < 100 | 101 to 1000 | < 100 |
| O=C(c1ccc(NS(=O)(=O)c2cccc3scnc23)cc1)N1CCC(O)(Cc2ccccc2C(F)(F)F)CC1 [Compound 412, N-(4-(4-hydroxy-4-(2-(trifluoromethyl)benzyl)piperidine-1-carbonyl)phenyl)benzo[d]thiazole-4-sulfonamide] | 101 to 1000 | 101 to 1000 | < 100 | < 100 |
| Nc1nc2c(S(=O)(=O)Nc3ccc(C(=O)N4CCC(O)(c5cccc(F)c5F)CC4)cc3)cccc2s1 [Compound 422] | < 100 | < 100 | < 100 | < 100 |

Further lines, results first:

| AC50 (PKR R510Q) [nM] | AC50 (PKR WT [1]) [nM] | AC50 (PKR WT [2]) [nM] | AC50 (PKR R532W) [nM] | Structure (SMILES) |
| --- | --- | --- | --- | --- |
| 101 to 1000 | < 100 | < 100 | < 100 | O=C(c1ccc(NS(=O)(=O)c2cccc3nccnc23)cc1)N1CCC(O)(CCC(F)=C(F)F)CC1 [Compound 398, N-(4-(4-hydroxy-4-(3,4,4-trifluorobut-3-enyl)piperidine-1-carbonyl)phenyl)quinoxaline-5-sulfonamide] |
| < 100 | < 100 | < 100 | < 100 | O=C(c1ccc(NS(=O)(=O)c2cccc3nccnc23)cc1)N1CCC(O)(CCC=C(F)F)CC1 [Compound 399, N-(4-(4-(4,4-difluorobut-3-en-1-yl)-4-hydroxypiperidine-1-carbonyl)phenyl)quinoxaline-5-sulfonamide] |
| 101 to 1000 | < 100 | < 100 | < 100 | O=C(c1ccc(NS(=O)(=O)c2cccc3nccnc23)cc1)N1CCC(O)(CCCC(F)F)CC1 [Compound 400, N-(4-(4-(4,4-difluorobutyl)-4-hydroxypiperidine-1-carbonyl)phenyl)quinoxaline-5-sulfonamide] |
| < 100 | < 100 | < 100 | < 100 | CC(C)CC1(O)CCN(C(=O)c2ccc(NS(=O)(=O)c3cccc4ccc(N)nc34)cc2)CC1 [Compound 402, 2-amino-N-(4-(4-hydroxy-4-isobutylpiperidine-1-carbonyl)phenyl)quinoline-8-sulfonamide] |
| 101 to 1000 | < 100 | 101 to 1000 | < 100 | CC(C)(F)CC1(O)CCN(C(=O)c2ccc(NS(=O)(=O)c3cccc4scnc34)cc2)CC1 [Compound 403, N-(4-(4-(2-fluoro-2-methylpropyl)-4-hydroxypiperidine-1-carbonyl)phenyl)benzo[d]thiazole-4-sulfonamide] |
| 101 to 1000 | 101 to 1000 | 101 to 1000 | 101 to 1000 | CC(CC1(O)CCN(C(=O)c2ccc(NS(=O)(=O)c3cccc4scnc34)cc2)CC1)C(F)F (stereo not drawn) [Compound 405, N-(4-(4-(3,3-difluoro-2-methylpropyl)-4-hydroxypiperidine-1-carbonyl)phenyl)benzo[d]thiazole-4-sulfonamide] |
| < 100 | < 100 | < 100 | < 100 | CC(C)CC1(O)CCN(C(=O)c2ccc(NS(=O)(=O)c3cccc4sc(N)nc34)cc2)CC1 [Compound 406, 2-amino-N-(4-(4-hydroxy-4-isobutylpiperidine-1-carbonyl)phenyl)benzo[d]thiazole-4-sulfonamide] |
| < 100 | < 100 | < 100 | < 100 | Nc1nc2c(S(=O)(=O)Nc3ccc(C(=O)N4CCC(O)(CCCC(F)(F)F)CC4)cc3)cccc2s1 [Compound 420] |
